We go through 11 compounds from publication PMC12295927, “Design, Synthesis, and Testing of 1,2,3-Triazolo-Quinobenzothiazine Hybrids for Cytotoxic and Immunomodulatory Activity” (International Journal of Molecular Sciences, 2025).

Structures are written as SMILES.

Assay [1] concerns MDM2 gene. As to the kind of experiment: RT-qPCR MDM2 gene expression in BEAS-2B. The assay is classed as cell-based, Human. Particulars: 24 h; for fold induction at 100 µM: Homo sapiens, reference gene RPL41, vs untreated control, read-out: Relative level of expression, MDM2 gene. As for the experimental part:
(§1) Real-time polymerase chain reaction was performed for the reference gene RPL41 (ribosomal protein L41) and the tested genes: BCL2, AIFM2, MDM2, IL6 and IL8. […] The BEAS-2B line was selected for the experiment. The expression level of selected genes was measured after 24 h of incubation with the tested substances MJ1–MJ20 at a concentration of 100 μM (Table 3).
The RT-qPCR experiment was performed for the BEAS-2B cell line. In this experiment, the MDM2 gene was studied and RPL41 was used as reference gene (Figure 15).
(§2) Gene expression studies used quantitative RT-qPCR to assess the effect of the tested quinobenzothiazines (MJ1–MJ20) on the expression of apoptosis-related genes (BCL2, AIFM2, MDM2) and pro-inflammatory cytokines (IL6, IL8) (Table 4).
(§3) BEAS-2B and HCT116 cells were seeded in 6-well plates at 2 × 10^5 cells per well and cultured in RPMI-1640 (BEAS-2B) or DMEM (HCT116) medium supplemented with 10% FBS and 1% penicillin/streptomycin at 37 °C, 5% CO2 and 95% humidity. After 24 h of incubation, the tested compounds were added at a concentration of 100 µM. After 24 h, the medium was removed from the cells, washed with PBS solution, 0.5 mL of trypsin was added per well and after 5 min it was neutralized with medium. The obtained cell suspension was centrifuged for 3 min at 2000 rpm, the supernatant was removed, and the obtained pellet was suspended in 400 µL of phenozol. Samples were frozen at −20 °C and stored until further experiment and RNA isolation.
(§4) Total RNA was isolated from cells using the A&A Biotechnology Total RNA Mini kit according to the manufacturer’s protocol. RNA quality and quantity were assessed using a NanoDrop 2000 spectrophotometer at 260/280 nm. Reverse transcription was performed using the protocol (EURx NG dART RT Kit) to obtain cDNA. After incubation, samples were placed in a freezer (−20 °C) and stored until further analysis.
(§5) The experiment was performed according to the protocol (Brilliant III Ultra Fast SYBR® Green QPCR Master Mix, Quick Reference Guide for the Bio-Rad CFX96 Real-Time PCR Detection System). RT-qPCR reaction was performed using specific primers for target genes (BCL2, AIFM2, MDM2, IL6, IL8). Gene expression was normalized to the expression of the reference gene RPL41. Reaction profiles and results were performed using Bio-Rad CFX Maestro 1.1 software from Bio-Rad. Analysis and calculations of the results obtained during RT-qPCR were performed using Microsoft Excel.
(§6) The results were analyzed using the R = 2^−ΔΔCt method, which allows for determining the relative level of gene expression (R) compared to the control. Each experiment was performed in three technical and biological replicates. RT-qPCR allowed for precise assessment of changes in the expression of genes related to the processes of apoptosis and inflammatory response under the influence of quinobenzothiazines, which allowed for identifying their potential mechanisms of action at the molecular level.

Assay [2] relates to IL8 gene. Description: RT-qPCR IL8 gene expression in BEAS-2B. The assay is classed as cell-based. Particulars: Homo sapiens, 24 h, reference gene RPL41, vs untreated control, read-out: Relative level of expression, IL8 gene. How it is done:
as §1
(§7) The RT-qPCR experiment was performed for the BEAS-2B cell line. In this experiment, the IL6 and IL8 genes were studied and RPL41 was used as a reference gene (Figure 17 and Figure 18).
as §2, §3, §4, §5, §6
(Real-time PCR tracks product formation cycle by cycle.)

Assay [3] deals with BCL2 gene. As to the kind of experiment: RT-qPCR BCL2 gene expression in BEAS-2B. The assay is classed as cell-based, Human. The conditions noted are these: 24 h; for fold induction at 100 µM: Homo sapiens, reference gene RPL41, vs untreated control, read-out: Relative level of expression, BCL2 gene. How it is done: as §1
The RT-qPCR experiment was performed for the BEAS-2B cell line. In this experiment, the BCL2 gene was studied, and RPL41 was used as the reference gene (Figure 14).
as §2, §3, §4, §5, §6

The test system of assay [4] is IL6 gene. Description: RT-qPCR IL6 gene expression in BEAS-2B. Particulars: 24 h; for fold induction at 100 µM: Homo sapiens, reference gene RPL41, vs untreated control, read-out: Relative level of expression, IL6 gene. Type of assay: cell-based, Human. As for the experimental part:
as §1, §7, §2, §3, §4, §5, §6

The subject of assay [5] is BEAS-2B. As to the kind of experiment: Alamar Blue cytotoxicity test, BEAS-2B. Type of assay: cell-based, Human. The conditions noted are these: Homo sapiens, 24 h, 24 h incubation, read-out: IC50 values for BEAS-2B line. As for the experimental part: The cytotoxicity of the tested chemical compounds MJ1–MJ20 was tested using the Alamar Blue test. The experiment was conducted on cell lines BEAS-2B (Figure 7), HCT116 (Figure 8), U2OS (Figure 9), MCF7 (Figure 10), SH-SY5Y (Figure 11), NHDF (Figure 12), and A549 (Figure 13). Cells were seeded in 96-well plates and incubated with the tested compounds for 24 h. The test result is the IC50 parameter, which is a measure of cytotoxic activity expressed by the concentration of the substance that causes the death of half of the analyzed cells compared to the control.
In cytotoxicity studies, the Alamar Blue test was used, which is based on the ability of living cells to reduce the non-fluorescent dye resazurin to fluorescent resorufin, which reflects the metabolic activity of cells. BEAS-2B, NHDF, HCT116, MCF7, A549, SH-SY5Y and U2OS cell lines were cultured under standard conditions, in DMEM medium supplemented with 10% FBS and 1% penicillin/streptomycin, at 37 °C, 5% CO2 and 95% humidity. Cells were seeded in 96-well plates at 1 × 10^4 cells per well and incubated for 24 h. Then, the tested compounds (MJ1–MJ20) were added at different concentrations (from 6.25 µM to 100 µM). The control contained cells untreated with the tested compounds. After 24 h of incubation, 10 µL of Alamar Blue solution was added to each well and incubated for another 2–4 h under the same conditions. The signal was measured spectrophotometrically at wavelengths of 570 nm (for resorufin) and 600 nm (for resazurin) or optionally fluorimetrically, using an excitation maximum of 570 nm and an emission maximum of 585 nm. The results were presented as percentage of cell survival relative to the control, calculating the ratio of absorbance or fluorescence of the sample to the control value. The Alamar Blue assay, due to its sensitivity and non-toxicity, allows for an accurate assessment of metabolic activity and cell survival in response to the tested quinobenzothiazines.
In general terms: The colour change of resazurin is a common sign of viable cells or microbes.

Assay [6] deals with AIFM2 gene. As to the kind of experiment: RT-qPCR AIFM2 gene expression in BEAS-2B. The assay is classed as cell-based, Human. The conditions noted are these: Homo sapiens, 24 h, reference gene RPL41, vs untreated control, read-out: Relative level of expression, AIFM2 gene. How it is done: as §1
The RT-qPCR experiment was performed for the BEAS-2B cell line. In this experiment, the AIFM2 gene was studied and RPL41 was used as reference gene (Figure 16).
as §2, §3, §4, §5, §6

In general, IC50 refers to the concentration at which inhibition is half-maximal. With `CSc1ccc2c(c1)Sc1cc3ccccc3nc1N2Cc1cn(CSc2ccccc2)nn1` [MJ20, 9-Methylthio-6-((1-((phenylthio)methyl)-1H-1,2,3-triazol-4-yl)methyl)-quino[3,2-b]benzo[1,4]thiazine], the fold induction at 100 µM was found to be 7.7 in assay [1]; 6.6 in assay [2]; 69.4 in assay [3]; 83.4 in assay [4]; 2.8 in assay [6]. In assay [3] (100 μM, compared to control), this compound came in with a BCL2 expression increase of 69.4 fold. The IL6 expression increase in assay [4] (100 μM, compared to control) amounted to 83.4 fold. For the same compound, the IC50 in assay [5] worked out at 83.7 µM.
Turning to `Fc1ccc(Cn2cc(CN3c4ccc(F)cc4Sc4cc5ccccc5nc43)nn2)cc1` [MJ7, 9-Fluoro-6-((1-(4-fluorobenzyl)-1H-1,2,3-triazol-4-yl)methyl)-quino[3,2-b]benzo[1,4]thiazine], the fold induction at 100 µM in assay [1] turned out to be 4.6; in assay [2], 2.6; in assay [3], 7.5; in assay [4] it was 3.5; in assay [6], 3.3. In addition, the 50% inhibitory concentration (IC50) in assay [5] was 73.6 µM.
`CSc1ccc2c(c1)Sc1cc3ccccc3nc1N2Cc1cn(Cc2ccc(F)cc2)nn1` [MJ17, 9-Methylthio-6-((1-(4-fluorobenzyl)-1H-1,2,3-triazol-4-yl)methyl)-quino[3,2-b]-benzo[1,4]thiazine] had an MDM2 expression increase in assay [1] (100 μM, compared to control) of 11.0 fold. Also, the fold induction at 100 µM turned out to be 11 in assay [1]; 5.7 in assay [2]; 33.9 in assay [3]; 28 in assay [4]; 2.5 in assay [6]. Besides, the concentration for half-maximal inhibition (IC50) in assay [5] was 72.6 µM.
For `Clc1ccc2c(c1)Sc1cc3ccccc3nc1N2Cc1cn(Cc2ccccc2)nn1` [MJ11, 9-Chloro-6-[(1-benzyl-1H-1,2,3-triazol-4-yl)-methyl]-quino[3,2-b]benzo[1,4]thiazine], the fold induction at 100 µM in assay [1] is 4.6; in assay [2] it was 1.4; in assay [3], 49.9; in assay [4], 5.7; in assay [6], 0.8. Besides, in assay [5], the half-inhibitory concentration (IC50) amounted to 88.1 µM.
Take `N#Cc1ccc(Cn2cc(CN3c4ccc(F)cc4Sc4cc5ccccc5nc43)nn2)cc1` [MJ9, 4-((4-((9-Fluoroquino [3,2-b]benzo[1,4]thiazin-6-yl)methyl)-1H-1,2,3-triazol-1-yl)methyl)-benzonitrile]: the fold induction at 100 µM in assay [1] was found to be 5.6; in assay [2] it was 0.9; in assay [3], 9.8; in assay [4], 4.3; in assay [6], 4.5. Besides, in assay [5], the concentration for half-maximal inhibition (IC50) was 73 µM.
For the compound `N#Cc1ccc(Cn2cc(CN3c4ccccc4Sc4cc5ccccc5nc43)nn2)cc1` [MJ4, 4-((4-((Quino[3,2-b]benzo[1,4]thiazin-6-yl)methyl)-1H-1,2,3-triazol-1-yl)methyl)benzonitrile], the fold induction at 100 µM was 4.3 in assay [1]; 0.8 in assay [2]; 9.3 in assay [3]; 3.1 in assay [4]; 1.4 in assay [6]. Also, in assay [5], the IC50 is 64.5 µM.
Take `Clc1ccc(Cn2cc(CN3c4ccc(Cl)cc4Sc4cc5ccccc5nc43)nn2)cc1` [MJ13, 9-Chloro-6-[(1-(4-chlorobenzyl)-1H-1,2,3-triazol-4-yl)methyl]-quino[3,2-b]benzo-[1,4]thiazine]: the fold induction at 100 µM was determined as 2.3 in assay [1]; 1.7 in assay [2]; 23.4 in assay [3]; 6.5 in assay [4]; 0.3 in assay [6]. Besides, in assay [5], the IC50 came out at 85.2 µM.
With `Fc1ccc2c(c1)Sc1cc3ccccc3nc1N2Cc1cn(Cc2ccccc2)nn1` [MJ6, 9-Fluoro-6-[(1-benzyl-1H-1,2,3-triazol-4-yl)-methyl]-quino[3,2-b]benzo[1,4]thiazine], the fold induction at 100 µM in assay [1] is 5.1; in assay [2], 0.1; in assay [3], 8.5; in assay [4], 3.2; in assay [6] it was 1.8. The IC50 in assay [5] was 72.9 µM.
Turning to `c1ccc(SCn2cc(CN3c4ccccc4Sc4cc5ccccc5nc43)nn2)cc1` [MJ5, 6-((1-((Phenylthio)methyl)-1H-1,2,3-triazol-4-yl)methyl)-quino[3,2-b]benzo[1,4]thiazine], the fold induction at 100 µM in assay [1] came to 4.8; in assay [2], 0.1; in assay [3], 5; in assay [4], 2.7; in assay [6], 1.9. The IC50 in assay [5] is 73 µM.
With `N#Cc1ccc(Cn2cc(CN3c4ccc(Cl)cc4Sc4cc5ccccc5nc43)nn2)cc1` [MJ14, 4-((4-((9-Chloroquino[3,2-b]benzo[1,4]thiazin-6-yl)methyl)-1H-1,2,3-triazol-1-yl)methyl)-benzonitrile], the fold induction at 100 µM in assay [1] came out at 3.7; in assay [2], 3.6; in assay [3] it was 43; in assay [4], 8.8; in assay [6], 1.2. Further, the IC50 in assay [5] was 78.4 µM.
`Fc1ccc2c(c1)Sc1cc3ccccc3nc1N2Cc1cn(CSc2ccccc2)nn1` [MJ10, 9-Fluoro-6-((1-((phenylthio)methyl)-1H-1,2,3-triazol-4-yl)methyl)-quino[3,2-b]-benzo[1,4]thiazine]: the fold induction at 100 µM in assay [1] came out at 3.6; in assay [2], 5.7; in assay [3], 10.6; in assay [4], 5.6; in assay [6], 3.1. Besides, the half-inhibitory concentration (IC50) in assay [5] stood at 72.3 µM.
